Numbered stars: 1 amine (or outer) side, 2 acyl side, 3 side chain; on linkers, the order of the positions; unused ones are H or OH. Bridge positions count the residues as written; N and C are the ends. Square brackets hold non-standard residues; d marks the D form. Peptide text beside a SMILES is read from it. ξ: configuration not given here. Ala(piperidin-4-yl) = O=C([C@H](CC1CCN([*:3])CC1)N[*:1])[*:2]; X16 = O=C([C@H](Cc1ccc2cnccc2c1)N[*:1])[*:2]; X23 = O=C([C@H](Cc1cc2ccccc2cn1)N[*:1])[*:2]; X27 = O=C([C@H](Cc1ccc2ncccc2c1)N[*:1])[*:2]; Phe(4-CH2NH2) = NCc1ccc(C[C@H](N)C(=O)O)cc1; Bip = N[C@@H](Cc1ccc(-c2ccccc2)cc1)C(=O)O; 4Pal = N[C@@H](Cc1ccncc1)C(=O)O; Cha = N[C@@H](CC1CCCCC1)C(=O)O; Cit = NC(=O)NCCC[C@H](N)C(=O)O; Ile(3ξ) = CCC(C)[C@H](N)C(=O)O; Thr(3ξ) = CC(O)[C@H](N)C(=O)O; Dap(Me) = CNC[C@H](N)C(=O)O; NMeA = CN[C@@H](C)C(=O)O; Dab = NCC[C@H](N)C(=O)O
Target: T1, PE-labeled human PD-L1-Ig binding to Jurkat cell line over-expressing human PD-1 (Jurkat-PD-1) (Homo sapiens, UniProt Q15116)
T1 construct: expressed in transfected cells; host or cells: Jurkat
Assay: Jurkat-PD-1 Cell Binding High-Content Screening Assay (CBA): Method 1
Settings: Jurkat-hPD-1 cells, PE-labeled PD-L1-Ig 20 nM final; read-out: Jurkat HPDL1 PD1 IC50 (uM) (Method 1)

T1 sequence (Q15116 25-288): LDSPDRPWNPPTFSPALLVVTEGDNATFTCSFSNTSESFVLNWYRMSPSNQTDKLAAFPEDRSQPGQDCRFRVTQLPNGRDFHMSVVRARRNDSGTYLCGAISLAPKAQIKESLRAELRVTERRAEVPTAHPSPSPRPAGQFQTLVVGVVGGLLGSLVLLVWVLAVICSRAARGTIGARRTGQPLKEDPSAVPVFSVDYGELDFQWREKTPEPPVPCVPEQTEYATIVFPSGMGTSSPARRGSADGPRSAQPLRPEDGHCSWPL

Compound	IC50 [µM]
CNC[C@@H]1NC(=O)[C@@H](CC(C)C)NC(=O)[C@H](C)N(C)C(=O)[C@H](CCCNC(N)=O)NC(=O)[C@H](Cc2ccc(-c3ccccc3)cc2)NC(=O)[C@H](C(C)C)NC(=O)[C@H](Cc2c[nH]c3ccccc23)NC(=O)[C@H](CC(=O)O)NC(=O)[C@H](Cc2ccc(O)cc2)NC(=O)[C@H](CC(N)=O)NC(=O)CSC[C@@H](C(=O)N[C@@H](C)C(N)=O)NC(=O)[C@H](C(C)O)NC(=O)[C@H](C(C)C)NC(=O)[C@H](CC(C)C)NC1=O (stereo partly drawn) [Compound 2039] ({CH2CO}-NYDWV[Bip][Cit][NMeA][dL][Dap(Me)]LV[Thr(3ξ)]CA-NH2; thioether N-14)	0.08
CCC(C)[C@@H]1NC(=O)[C@H](Cc2ccc(-c3ccccc3)cc2)NC(=O)[C@H](C(C)C)NC(=O)[C@H](Cc2c[nH]c3ccccc23)NC(=O)[C@H](CC(=O)O)NC(=O)[C@H](Cc2ccc(O)cc2)NC(=O)[C@H](CC(N)=O)NC(=O)CSC[C@@H](C(=O)N[C@@H](C)C(N)=O)NC(=O)[C@H](C(C)O)NC(=O)[C@H](C(C)C)NC(=O)[C@H](CC(C)C)NC(=O)[C@H](CCN)NC(=O)[C@@H](CC(C)C)NC(=O)[C@H](C)N(C)C1=O (stereo partly drawn) [Compound 2040] ({CH2CO}-NYDWV[Bip][Ile(3ξ)][NMeA][dL][Dab]LV[Thr(3ξ)]CA-NH2; thioether N-14)	0.05
CCC(C)[C@@H]1NC(=O)[C@H](Cc2ccc(-c3ccccc3)cc2)NC(=O)[C@H](C(C)C)NC(=O)[C@H](Cc2c[nH]c3ccccc23)NC(=O)[C@H](CC(=O)O)NC(=O)[C@H](Cc2ccc(O)cc2)NC(=O)[C@H](Cc2ccc3cnccc3c2)NC(=O)CSC[C@@H](C(=O)N[C@@H](C)C(N)=O)NC(=O)[C@H](C(C)O)NC(=O)[C@H](C(C)C)NC(=O)[C@H](CC2CCCCC2)NC(=O)[C@H](CCN)NC(=O)[C@@H](CC(C)C)NC(=O)[C@H](C)N(C)C1=O (stereo partly drawn) [Compound 2046] ({CH2CO}-[X16]YDWV[Bip][Ile(3ξ)][NMeA][dL][Dab][Cha]V[Thr(3ξ)]CA-NH2; thioether N-14)	0.02
CCC(C)[C@@H]1NC(=O)[C@H](Cc2ccc(-c3ccccc3)cc2)NC(=O)[C@H](C(C)C)NC(=O)[C@H](Cc2c[nH]c3ccccc23)NC(=O)[C@H](CC(=O)O)NC(=O)[C@H](Cc2ccc(O)cc2)NC(=O)[C@H](Cc2ccc(CN)cc2)NC(=O)CSC[C@@H](C(=O)N[C@@H](C)C(N)=O)NC(=O)[C@H](C(C)O)NC(=O)[C@H](C(C)C)NC(=O)[C@H](CC2CCCCC2)NC(=O)[C@H](CC(N)=O)NC(=O)[C@@H](CC(C)C)NC(=O)[C@H](C)N(C)C1=O (stereo partly drawn) [Compound 2047] ({CH2CO}-[Phe(4-CH2NH2)]YDWV[Bip][Ile(3ξ)][NMeA][dL]N[Cha]V[Thr(3ξ)]CA-NH2; thioether N-14)	0.06
CC(C)C[C@H]1NC(=O)[C@H](C)N(C)C(=O)[C@H](Cc2ccc(CN)cc2)NC(=O)[C@H](Cc2ccc(-c3ccccc3)cc2)NC(=O)[C@H](C(C)C)NC(=O)[C@H](Cc2c[nH]c3ccccc23)NC(=O)[C@H](CC(=O)O)NC(=O)[C@H](Cc2ccc(O)cc2)NC(=O)[C@H](Cc2ccncc2)NC(=O)CSC[C@@H](C(=O)N[C@@H](C)C(N)=O)NC(=O)[C@H](C(C)O)NC(=O)[C@H](C(C)C)NC(=O)[C@H](CC2CCCCC2)NC(=O)[C@H](CC(N)=O)NC1=O (stereo partly drawn) [Compound 2048] ({CH2CO}-[4Pal]YDWV[Bip][Phe(4-CH2NH2)][NMeA][dL]N[Cha]V[Thr(3ξ)]CA-NH2; thioether N-14)	0.03
CCC(C)[C@@H]1NC(=O)[C@H](Cc2ccc(-c3ccccc3)cc2)NC(=O)[C@H](C(C)C)NC(=O)[C@H](Cc2c[nH]c3ccccc23)NC(=O)[C@H](CC(=O)O)NC(=O)[C@H](Cc2ccc(O)cc2)NC(=O)[C@H](Cc2ccncc2)NC(=O)CSC[C@@H](C(=O)N[C@@H](C)C(N)=O)NC(=O)[C@H](C(C)O)NC(=O)[C@H](C(C)C)NC(=O)[C@H](CC2CCCCC2)NC(=O)[C@H](Cc2ccc(CN)cc2)NC(=O)[C@@H](CC(C)C)NC(=O)[C@H](C)N(C)C1=O (stereo partly drawn) [Compound 2049] ({CH2CO}-[4Pal]YDWV[Bip][Ile(3ξ)][NMeA][dL][Phe(4-CH2NH2)][Cha]V[Thr(3ξ)]CA-NH2; thioether N-14)	0.09

More lines, now with the values ahead:

IC50 [µM]	Compound
0.02	CNC[C@@H]1NC(=O)CSC[C@@H](C(=O)N[C@@H](C)C(N)=O)NC(=O)[C@H](C(C)O)NC(=O)[C@H](C(C)C)NC(=O)[C@H](CC(C)C)NC(=O)[C@H](CCN)NC(=O)[C@@H](CC(C)C)NC(=O)[C@H](C)N(C)C(=O)[C@H](C(C)C)NC(=O)[C@H](Cc2ccc(-c3ccccc3)cc2)NC(=O)[C@H](C(C)C)NC(=O)[C@H](Cc2c[nH]c3ccccc23)NC(=O)[C@H](CC(=O)O)NC(=O)[C@H](Cc2ccc(O)cc2)NC1=O (stereo partly drawn) [Compound 2041] ({CH2CO}-[Dap(Me)]YDWV[Bip]V[NMeA][dL][Dab]LV[Thr(3ξ)]CA-NH2; thioether N-14)
0.01	CCC(C)[C@@H]1NC(=O)[C@H](Cc2ccc(-c3ccccc3)cc2)NC(=O)[C@H](C(C)C)NC(=O)[C@H](Cc2c[nH]c3ccccc23)NC(=O)[C@H](CC(=O)O)NC(=O)[C@H](Cc2ccc(O)cc2)NC(=O)[C@H](CC2CCNCC2)NC(=O)CSC[C@@H](C(=O)N[C@@H](C)C(N)=O)NC(=O)[C@H](C(C)O)NC(=O)[C@H](C(C)C)NC(=O)[C@H](CC2CCCCC2)NC(=O)[C@H](CCN)NC(=O)[C@@H](CC(C)C)NC(=O)[C@H](C)N(C)C1=O (stereo partly drawn) [Compound 2043] ({CH2CO}-[Ala(piperidin-4-yl)]YDWV[Bip][Ile(3ξ)][NMeA][dL][Dab][Cha]V[Thr(3ξ)]CA-NH2; thioether N-14)
0.02	CCC(C)[C@@H]1NC(=O)[C@H](Cc2ccc(-c3ccccc3)cc2)NC(=O)[C@H](C(C)C)NC(=O)[C@H](Cc2c[nH]c3ccccc23)NC(=O)[C@H](CC(=O)O)NC(=O)[C@H](Cc2ccc(O)cc2)NC(=O)[C@H](Cc2cc3ccccc3cn2)NC(=O)CSC[C@@H](C(=O)N[C@@H](C)C(N)=O)NC(=O)[C@H](C(C)O)NC(=O)[C@H](C(C)C)NC(=O)[C@H](CC2CCCCC2)NC(=O)[C@H](CCN)NC(=O)[C@@H](CC(C)C)NC(=O)[C@H](C)N(C)C1=O (stereo partly drawn) [Compound 2044] ({CH2CO}-[X23]YDWV[Bip][Ile(3ξ)][NMeA][dL][Dab][Cha]V[Thr(3ξ)]CA-NH2; thioether N-14)
0.01	CCC(C)[C@@H]1NC(=O)[C@H](Cc2ccc(-c3ccccc3)cc2)NC(=O)[C@H](C(C)C)NC(=O)[C@H](Cc2c[nH]c3ccccc23)NC(=O)[C@H](CC(=O)O)NC(=O)[C@H](Cc2ccc(O)cc2)NC(=O)[C@H](Cc2ccc3ncccc3c2)NC(=O)CSC[C@@H](C(=O)N[C@@H](C)C(N)=O)NC(=O)[C@H](C(C)O)NC(=O)[C@H](C(C)C)NC(=O)[C@H](CC2CCCCC2)NC(=O)[C@H](CCN)NC(=O)[C@@H](CC(C)C)NC(=O)[C@H](C)N(C)C1=O (stereo partly drawn) [Compound 2045] ({CH2CO}-[X27]YDWV[Bip][Ile(3ξ)][NMeA][dL][Dab][Cha]V[Thr(3ξ)]CA-NH2; thioether N-14)
0.01	CCC(C)[C@@H]1NC(=O)[C@H](Cc2ccc(-c3ccccc3)cc2)NC(=O)[C@H](C(C)C)NC(=O)[C@H](Cc2c[nH]c3ccccc23)NC(=O)[C@H](CC(=O)O)NC(=O)[C@H](Cc2ccc(O)cc2)NC(=O)[C@H](CNC)NC(=O)CSC[C@@H](C(=O)N[C@@H](C)C(N)=O)NC(=O)[C@H](C(C)O)NC(=O)[C@H](C(C)C)NC(=O)[C@H](CC2CCCCC2)NC(=O)[C@H](CCN)NC(=O)[C@@H](CC(C)C)NC(=O)[C@H](C)N(C)C1=O (stereo partly drawn) [Compound 2050] ({CH2CO}-[Dap(Me)]YDWV[Bip][Ile(3ξ)][NMeA][dL][Dab][Cha]V[Thr(3ξ)]CA-NH2; thioether N-14)
